The text below walks through data of US20230295260A1, “GLP RECEPTOR AGONISTS” (HEPTARES THERAPEUTICS LIMITED, priority 2020, published 2023).

“Also recorded” adds a separate entry of the source. Non-standard residues stand in square brackets, D forms with d. Residues, ends and D or L forms follow the SMILES beside them. *: point of attachment. Malonyl(2,2-Me2,histaminyl) = CC(C)(C(=O)NCCc1cnc[nH]1)C(=O)*; Ala(1H-tetrazol-5-yl) = N[C@@H](Cc1nnn[nH]1)C(=O)O; αMePhe(2-F) = C[C@](N)(Cc1ccccc1F)C(=O)O; Nle = CCCC[C@H](N)C(=O)O; Alloc = C=CCOC(=O)*

One assay deals with T1, mouse GLP2 receptor (Mus musculus, UniProt Q5IXF8).
T1 construct: expressed in transfected cells; host or cells: HEK cells, transient transfection with GeneJuice
T1 sequence (Q5IXF8 1-512): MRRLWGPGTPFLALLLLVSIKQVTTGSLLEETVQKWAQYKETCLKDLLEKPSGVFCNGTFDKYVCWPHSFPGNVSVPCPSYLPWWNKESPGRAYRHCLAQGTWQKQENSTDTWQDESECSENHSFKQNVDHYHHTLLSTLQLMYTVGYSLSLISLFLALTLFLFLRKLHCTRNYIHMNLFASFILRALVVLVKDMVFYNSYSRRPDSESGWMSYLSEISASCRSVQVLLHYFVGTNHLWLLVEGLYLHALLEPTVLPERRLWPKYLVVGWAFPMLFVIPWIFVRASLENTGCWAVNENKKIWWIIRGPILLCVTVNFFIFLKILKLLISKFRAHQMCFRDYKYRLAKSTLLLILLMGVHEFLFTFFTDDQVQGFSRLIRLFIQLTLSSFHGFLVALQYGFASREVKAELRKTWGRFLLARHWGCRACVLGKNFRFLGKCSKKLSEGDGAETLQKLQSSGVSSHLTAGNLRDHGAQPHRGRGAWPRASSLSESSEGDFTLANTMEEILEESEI
Briefly: cAMP accumulation assay (HTRF), functional agonism of mouse GLP2 receptor in HEK cells. Type of assay: cell-based. The following applies: HEK cells transiently transfected, 45 min 37° C.; for Emax: HEK293, read-out: Mouse GLP-2R agonist cAMP Emax; for EC50: read-out: Mouse GLP-2R agonist cAMP pEC50 (converted). For orientation: Cyclic AMP is a second messenger, typically raised through Gs and lowered through Gi signalling.

A further assay deals with T2, human GLP2 receptor (Homo sapiens, UniProt O95838).
T2 sequence (O95838 1-553): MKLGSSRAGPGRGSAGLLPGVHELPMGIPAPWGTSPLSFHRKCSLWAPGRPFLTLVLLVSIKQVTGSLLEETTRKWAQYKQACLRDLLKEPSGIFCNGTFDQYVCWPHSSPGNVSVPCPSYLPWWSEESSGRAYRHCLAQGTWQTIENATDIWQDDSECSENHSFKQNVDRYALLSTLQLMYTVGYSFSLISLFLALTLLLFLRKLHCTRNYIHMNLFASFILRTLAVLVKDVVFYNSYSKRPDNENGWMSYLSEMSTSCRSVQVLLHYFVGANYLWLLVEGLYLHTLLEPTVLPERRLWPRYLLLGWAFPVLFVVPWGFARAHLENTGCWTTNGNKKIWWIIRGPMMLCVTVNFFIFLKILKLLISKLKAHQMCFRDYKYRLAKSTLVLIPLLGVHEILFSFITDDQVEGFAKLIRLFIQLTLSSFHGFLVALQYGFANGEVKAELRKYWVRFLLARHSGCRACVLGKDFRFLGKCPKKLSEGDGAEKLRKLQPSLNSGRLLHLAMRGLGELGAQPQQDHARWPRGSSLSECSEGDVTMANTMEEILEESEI
Briefly: cAMP accumulation assay (HTRF), functional agonism of human GLP2 receptor in HEK cells.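 For all read-outs here: HEK cells transduced via BacMam to express human GLP2 receptor, agonist-stimulated cAMP measured by HTRF after 45 min at 37 °C in HBSS with 0.5 mM IBMX.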 The following applies: for Emax: HEK293, read-out: Human GLP-2R agonist cAMP Emax.

Assay [1] concerns C57BL/6J male mice. Briefly: Effect on glucose tolerance (OGTT) in normal mice (FIG. 3). Type of assay: in vivo, mouse. Particulars: mice fasted 6 h, 270 nmol/kg sc 1 hour before 2 g/kg oral glucose (liraglutide 200 ug/kg iv). On the procedure:
One hour before glucose challenge, Example 1 or 3 (270 nmol/kg) or vehicle (0.1% Tween80 in PBS) was administered as a single subcutaneous injection. […] Serial blood glucose measurements were taken at baseline and at timepoints post oral glucose challenge. (A) Time course of blood glucose levels. N=6 animals / grp. Mean +/-SEM.
C57BL/6J male mice (Charles River, Italy, ~8w) are fasted for 6 hours on the day of testing with free access to drinking water. Prior to drug dosing, pre-dose blood glucose measurements are taken using a glucometer (ACCU-CHEK performa, Roche Diagnostic GmbH). Animals are dosed with either the vehicle (0.1% Tween80 in PBS) or compound (270 nmol/kg) via subcutaneous injection. […] 1 hour after dosing, mice are given 2 g/kg oral gavage of glucose and blood is sampled at defined time points for analysis of blood glucose levels. Timepoints of sampling: t=0 (prior to glucose dosing), 15 mins, 30 mins, 60 mins, 120 mins and 180 mins.

Assay [2] has as its system C57BL/6J male mice. Briefly: Effect on intestinal wet weight in normal mice (FIG. 1). Type of assay: in vivo, mouse. The following applies: once daily sc 270 nmol/kg (liraglutide iv 200 ug/kg), sacrificed on day 3, vs. vehicle. On the procedure:
Mice were sacrificed on day 3 and the wet weight of the small intestine was quantified. GLP-2 active peptides show significant enhancement of the small intestinal weight. […] N=6 animals / grp. *p < 0.05 vs. vehicle
C57BL/6J male mice (Charles River, Italy, ~8 weeks) are randomly allocated to the treatment group based on the baseline body weights. Animals are given free access to food and water during the whole duration of the study. Mice are dosed daily with the test compounds via subcutaneous injection. […] The abdominal cavity will be opened and the intestinal tissue is excised carefully to avoid perforation. Tissue from the upper small intestine (15 cm segment from the pylorus) is collected. The bowel is cleaned by flushing through with ice cold PBS to remove any feces.

The next assay addresses T3, human GLP1 receptor (Homo sapiens, UniProt P43220).
T3 construct: expressed in transfected cells; host or cells: HEK cells, BacMam virus transduction
Briefly: cAMP accumulation assay (HTRF), functional agonism of human GLP1 receptor in HEK cells. Type of assay: cell-based. Particulars: HEK cells, human GLP1 receptor BacMam, 45 min 37° C.; for Emax: HEK293, read-out: Human GLP-1R agonist cAMP Emax; for EC50: read-out: Human GLP-1R agonist cAMP pEC50 (converted).

The next assay addresses T4, mouse GLP1 receptor (Mus musculus, UniProt O35659).
T4 construct: expressed in transfected cells; host or cells: HEK cells, transient transfection with GeneJuice
T4 sequence (O35659 22-463): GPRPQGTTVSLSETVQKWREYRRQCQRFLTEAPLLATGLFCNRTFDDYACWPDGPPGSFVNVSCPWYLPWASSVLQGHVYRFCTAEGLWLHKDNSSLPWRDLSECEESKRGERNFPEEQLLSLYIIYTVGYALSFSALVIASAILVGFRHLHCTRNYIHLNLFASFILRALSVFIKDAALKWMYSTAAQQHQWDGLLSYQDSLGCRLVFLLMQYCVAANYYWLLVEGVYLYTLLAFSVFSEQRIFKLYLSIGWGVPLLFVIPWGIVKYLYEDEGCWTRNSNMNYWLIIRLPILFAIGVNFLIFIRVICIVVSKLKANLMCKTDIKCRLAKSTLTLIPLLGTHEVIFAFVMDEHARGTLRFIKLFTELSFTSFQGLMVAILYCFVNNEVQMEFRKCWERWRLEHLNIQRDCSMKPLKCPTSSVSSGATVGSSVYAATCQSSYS
Briefly: cAMP accumulation assay (HTRF), functional agonism of mouse GLP1 receptor in HEK cells. Type of assay: cell-based. The following applies: HEK cells transiently transfected, 45 min 37° C.; for Emax: HEK293, read-out: Mouse GLP-1 R agonist cAMP Emax; for EC50: read-out: Mouse GLP-1 R agonist cAMP pEC50 (converted).

Assay [3] has as its system C57BL/6J male mice. Briefly: Dose response effect on intestinal mass in normal mice, 7 day dosing (FIG. 2). Type of assay: in vivo, mouse. The following applies: daily sc. On the procedure:
The enhancement of the small bowel wet weight (over vehicle) is plotted as a function of the peptide dose. […] N=6 animals I grp.
C57BL/6J male mice (Charles River, Italy, ~8 weeks) are randomly allocated to the treatment group based on the baseline body weights. Animals are given free access to food and water during the whole duration of the study. Mice are dosed daily with the vehicle or test peptides via subcutaneous injection. On day 7, animals are sacrificed and segments from the upper small intestine (15 cm segment from the pylorus) are collected and weighed (see Example B).

T3 sequence (P43220 24-463): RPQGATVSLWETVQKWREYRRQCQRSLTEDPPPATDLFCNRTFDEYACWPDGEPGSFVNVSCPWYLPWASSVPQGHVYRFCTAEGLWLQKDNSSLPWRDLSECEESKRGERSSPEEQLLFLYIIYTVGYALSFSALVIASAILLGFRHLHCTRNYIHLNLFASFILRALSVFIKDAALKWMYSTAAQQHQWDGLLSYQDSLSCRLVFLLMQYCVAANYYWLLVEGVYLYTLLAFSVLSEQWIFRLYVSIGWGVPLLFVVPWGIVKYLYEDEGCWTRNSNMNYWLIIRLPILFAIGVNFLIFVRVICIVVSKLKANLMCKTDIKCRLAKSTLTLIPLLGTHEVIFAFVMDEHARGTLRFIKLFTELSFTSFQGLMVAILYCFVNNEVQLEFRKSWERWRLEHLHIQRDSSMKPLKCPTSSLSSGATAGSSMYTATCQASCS
Protocol for human GLP2 receptor: The functional activity of the peptides were assessed using a HTRF cAMP assay. pEC50 values are quoted.
cAMP production upon agonist stimulation of human GLP2 or GLP1 receptor was assessed utilizing HiRange cAMP kit (Cisbio). In brief, HEK cells were infected with either human GLP2 or GLP1 receptor BacMam virus for 24 hours and frozen for later use in the assay. […] Cells were prepared in the assay buffer (HBSS (Lonza) supplemented with 0.5 mM IBMX (Tocris)). After 45 min incubation at 37° C., the reaction was stopped by addition of the HTRF detection reagents in the lysis buffer provided in the kit.

What is called Emax is the maximal effect, on the per cent scale that the assay sets. For `C=CCOC(=O)NCCCC[C@H](NC(=O)[C@H](CC(C)C)NC(=O)[C@H](CC(=O)O)NC(=O)[C@H](CC(C)C)NC(=O)[C@@H](NC(=O)[C@@H](NC(=O)[C@@H](Cc1ccccc1)NC(=O)[C@H](CCCC)NC(=O)[C@H](CCC(=O)O)NC(=O)[C@H](CC(=O)O)NC(=O)[C@H](CO)NC(=O)[C@H](Cc1ccccc1)NC(=O)[C@H](CO)NC(=O)CNC(=O)[C@H](Cc1nn[nH]n1)NC(=O)C(C)(C)C(=O)NCCc1c[nH]cn1)[C@@H](C)O)[C@@H](C)CC)C(=O)N[C@@H](C)C(=O)N[C@@H](C)C(=O)N[C@@H](CCCCN)C(=O)N[C@@H](CC(=O)O)C(=O)N[C@@H](Cc1ccccc1)C(=O)N[C@H](C(=O)N[C@@H](CC(N)=O)C(=O)N[C@@H](Cc1c[nH]c2ccccc12)C(=O)N[C@@H](CC(C)C)C(=O)N[C@H](C(=O)N[C@@H](CCC(N)=O)C(=O)N[C@H](C(=O)N[C@@H](CCCCN)C(=O)N[C@H](C(=O)N[C@H](C(=O)N[C@@H](CC(=O)O)C(N)=O)[C@@H](C)O)[C@@H](C)CC)[C@@H](C)O)[C@@H](C)CC)[C@@H](C)CC` [Example 1] ({Malonyl(2,2-Me2,histaminyl)}-[Ala(1H-tetrazol-5-yl)]GSFSDE[Nle][dF]TILDLK(Alloc)AAKDFINWLIQTKITD-NH2), the maximal effect (Emax) at mouse GLP2 receptor was 102%; at human GLP2 receptor, 102%; on human GLP1 receptor, 94.1%; at mouse GLP1 receptor, 95.9%. For the same compound, the EC50 is 200 pM on mouse GLP2 receptor, 10 pM on human GLP2 receptor, 3160 pM on human GLP1 receptor and 3160 pM at mouse GLP1 receptor. Also, in the assay with C57BL/6J male mice [1], the “peak blood glucose concentration in OGTT” value is reported as “significantly reduced”. Also, in the assay with C57BL/6J male mice [2], the “wet weight of the small intestine” value is “superior enhancements in intestinal weight compared to Teduglutide; also recorded: Significant enhancement of intestinal wet weight”. For the same compound, the “enhancement of small bowel wet weight (over vehicle) as a function of dose” value in the assay with C57BL/6J male mice [3] is listed as “greater maximal enhancements in small intestinal wet weight compared to Teduglutide; also recorded: dose dependent enhancements in the wet weight of the small intestine”.
With `C=CCOC(=O)NCCCC[C@H](NC(=O)[C@H](CC(C)C)NC(=O)[C@H](CC(=O)O)NC(=O)[C@H](CC(C)C)NC(=O)[C@@H](NC(=O)[C@@H](NC(=O)[C@@H](Cc1ccccc1)NC(=O)[C@H](CCCC)NC(=O)[C@H](CCC(=O)O)NC(=O)[C@H](CC(=O)O)NC(=O)[C@H](CO)NC(=O)[C@](C)(Cc1ccccc1F)NC(=O)[C@H](CO)NC(=O)CNC(=O)[C@H](Cc1nn[nH]n1)NC(=O)C(C)(C)C(=O)NCCc1c[nH]cn1)[C@@H](C)O)[C@@H](C)CC)C(=O)N[C@@H](C)C(=O)N[C@@H](C)C(=O)N[C@@H](CCCCN)C(=O)N[C@@H](CC(=O)O)C(=O)N[C@@H](Cc1ccccc1)C(=O)N[C@H](C(=O)N[C@@H](CC(N)=O)C(=O)N[C@@H](Cc1c[nH]c2ccccc12)C(=O)N[C@@H](CC(C)C)C(=O)N[C@H](C(=O)N[C@@H](CCC(N)=O)C(=O)N[C@H](C(=O)N[C@@H](CCCCN)C(=O)N[C@H](C(=O)N[C@H](C(=O)N[C@@H](CC(=O)O)C(N)=O)[C@@H](C)O)[C@@H](C)CC)[C@@H](C)O)[C@@H](C)CC)[C@@H](C)CC` [Example 3] ({Malonyl(2,2-Me2,histaminyl)}-[Ala(1H-tetrazol-5-yl)]GS[αMePhe(2-F)]SDE[Nle][dF]TILDLK(Alloc)AAKDFINWLIQTKITD-NH2), the Emax on mouse GLP2 receptor is 103%; at human GLP2 receptor it was 102%; on human GLP1 receptor it was 99.2%; at mouse GLP1 receptor it was 99.5%. The EC50 on mouse GLP2 receptor is 501 pM; on human GLP2 receptor it was 15.8 pM; on human GLP1 receptor it was 79.4 pM; on mouse GLP1 receptor, 398 pM. Further, the “peak blood glucose concentration in OGTT” value in the assay on C57BL/6J male mice [1] was “significantly reduced”. Besides, the “wet weight of the small intestine” value in the assay with C57BL/6J male mice [2] is listed as “superior enhancements in intestinal weight compared to Teduglutide; also recorded: Significant enhancement of intestinal wet weight”. Also, the “enhancement of small bowel wet weight (over vehicle) as a function of dose” value in the assay with C57BL/6J male mice [3] is given as “greater maximal enhancements in small intestinal wet weight compared to Teduglutide; also recorded: dose dependent enhancements in the wet weight of the small intestine”.
